Measurements taken from US20130315895A1, “COMBINATION OF A cMET INHIBITOR AND AN ANTIBODY TO HGF AND/OR cMET” (priority 2010, published 2013).

Key:
Human U87MG Glioblastoma [1] = test: In vivo evaluation of Compounds 3 and 45, alone and in combination with anti-HGF mAb HuL2G7, in human U87MG glioblastoma implanted nude mice (tumor growth delay method); conditions: for induction of regressions: monotherapy p.o. qd x 14; for tumor growth delays / tumor growth delays (% of median TTE of control): monotherapy p.o. qd x 14 (Table 4: Cmpd 45 136.05 mg/kg, Cmpd 3 200 mg/kg)
Experimental: B. In Vivo Evaluation of Compounds 3 and 45, Alone and in Combination with Anti-HGF mAb HuL2G7, in Human U87MG Glioblastoma Implanted Nude Mice
(§1) Female athymic nude mice (Harlan), 9 weeks of age, were fed ad libitum water (reverse osmosis, 1 ppm Cl2) and an irradiated standard rodent diet (NIH31 Modified and Irradiated) consisting of: 18% protein, 5% fat, and 5% fiber. Mice were housed on irradiated Enrich-O'Cobs™ laboratory animal bedding in static microisolators on a 12-hour light cycle at 21-22° C. (70-72° F.) and 40-60% humidity.
(§2) The human U87MG glioblastoma utilized in the present study was maintained in serial s.c. transplantation in nude mice. Mice were implanted subcutaneously in the flank with a 1 mm^3 fragment of U87MG glioblastoma. Tumors were monitored as the neoplasms reached the desired size, approximately 190 mm^3. At 12 days, when the tumors attained a size between 172-256 mm^3 in calculated tumor volume, the animals were pair-matched into various treatment groups (the mean tumor volume in each group was 190-198 mm^3). Estimated tumor volume was calculated using the formula:
(§3) where w=width and l=length in mm of a U87MG glioblastoma.
Compounds 3 and 45 were prepared by as described above. Compounds 3 and 45 were then prepared for administration as suspensions in 30% Captisol/100 mM citrate at pH 3.0. HuL2G7 was then provided as a 20.7 mg/ml stock solution in normal saline. The stock solution was diluted with normal saline to provide the formulation for injection.
(§4) The concentration of each compound was such that the desired dose was delivered in a volume of 5 μl per gram body weight. Dosing solutions of Compounds 3 and 45 were prepared fresh weekly and stored under refrigeration. Dosing solutions of HuL2G7 were prepared fresh prior to each treatment and were stored under refrigeration along with the stock solution.
On Day 1, animals were pairmatched by tumor size into 8 groups of 10 mice each. […] HuL2G7 was given i.v. at 10 mg/kg qwk×2. Treatment with all agents, either alone or in combination, was initiated on Day 1. Mice treated with monotherapy received the vehicle used for the other agent. There was a vehicle control group which received the Captisol/citrate, pH 3.0 vehicle p.o. qd×14 as well as saline i.v. qwk×2. Treatment groups were compared for statistical significance to the vehicle control. Groups that received the combinations were compared for statistical significance to the monotherapy groups that received the two agents used in combination. The experiment was terminated on Day 43.
(§5) The tumor growth delay (TGD) method was used in this study; treatment-effected median increases in time to endpoint (TTE) of various treatment groups were compared to untreated and vehicle controls. In the TGD method, each animal was euthanized as a cancer death when its U87MG glioblastoma reached a size of 2000 mm^3. TTE values were determined for all groups based on the calculated day reaching endpoint as given by the formula: […]
(§6) where TTE is expressed in days, endpoint volume is in mm^3, b is the intercept, and m is the slope of the line obtained by linear regression of a log-transformed tumor growth data set. The data set is comprised of the first observation that exceeded the study endpoint volume and the three consecutive observations that immediately preceded the attainment of the endpoint volume. The calculated TTE is usually less than the day on which an animal is euthanized for tumor size. […] Animals classified as treatment related deaths (TR) or non-treatment-related metastatic deaths (NTRm) are assigned a TTE value equal to the day of death. Animals classified as non-treatment-related deaths (NTRu or NTRa) are excluded from TTE calculations.
Treatment efficacy was determined from tumor growth delay (TGD), which is defined as the increase in the median TTE for a treatment group compared to the control group:
expressed in days, or as a percentage of the median TTE of the control group: […]

Human U87MG Glioblastoma [2] = test: In vivo evaluation of Compound 45, alone and in combination with anti-HGF mAb HuL2G7, in human U87MG glioblastoma implanted nude mice (tumor growth delay method)
Experimental: A. In Vivo Evaluation of Compound 45, Alone and in Combination with Anti-HGF mAb HuL2G7, in Human U87MG Glioblastoma Implanted Nude Mice
as §1, with “10” for “9”, “[…])” for “Cl2)”, “Enrich-o′-Cobs™” for “Enrich-O'Cobs™”
as §2, with “glioblastoma” for “glioblastoma utilized in the present study”, “monitored twice weekly then subsequently daily” for “monitored”, “13” for “12”, “126-288” for “172-256”, “184-192” for “190-198”
as §3
Compound 45 was produced as described above. Compound 45 was then prepared for administration in 30% Captisol/25 mM citrate at pH 3.0. HuL2G7 was then provided as a 19.0 mg/ml stock solution in normal saline. The stock solution was diluted with normal saline to provide the formulation for injection.
as §4, with “Compound” for “Compounds 3 and”, “at room temperature.” for “under refrigeration.”
On Day 1, animals were pairmatched by tumor size into 16 groups of 10 mice each. Compound 45 was given p.o. at 10.8, 32.4 and 108 mg/kg qd×14. HuL2G7 was given i.v. at 1, 3 and 10 mg/kg qwk×2. Treatment with both agents either alone or in combination was initiated on Day 1. Mice treated with monotherapy received the vehicle used for the other agent. There was a vehicle control group which received the Captisol/citrate, pH 3.0 vehicle p.o. qd×14 as well as saline i.v. qwk×2. Treatment groups were compared for statistical significance to the vehicle control. Groups that received the combination were compared for statistical significance to the monotherapy groups that received the same dose of the two agents used in combination. The experiment was terminated on Day 44.
as §5
as §6, with “calculations. Treatment efficacy was determined from tumor growth delay (TGD), which is defined as the increase in the median TTE for a treatment group compared to the control group: […]” for “calculations.”

[3] = monotherapy, text summary over doses (Compound 45 daily for 14 days; HuL2G7 i.v. qwk x 2)
[4] = monotherapy: Compound 45 10.8 mg/kg p.o. qd x 14 (HuL2G7 0)
[5] = monotherapy: Compound 45 32.4 mg/kg p.o. qd x 14 (HuL2G7 0)
[6] = monotherapy: Compound 45 108 mg/kg p.o. qd x 14 (HuL2G7 0)

Row | SMILES | melting point [°C] | induction of regressions (Human U87MG Glioblastoma [1]) | tumor growth delays (Human U87MG Glioblastoma [1]) [days] | tumor growth delays (% of median TTE of control) (Human U87MG Glioblastoma [1]) | induction of regressions (Human U87MG Glioblastoma [2]; monotherapy) | tumor growth delays (Human U87MG Glioblastoma [2]; [3]) [days] | tumor growth delays (% of median TTE of control) (Human U87MG Glioblastoma [2]; [3]) | Regressions (CR/PR per 10 mice) (Human U87MG Glioblastoma [2]; [4]) | Tumor Growth Delay (TGD) (Human U87MG Glioblastoma [2]; [4]) [days] | Regressions (CR/PR per 10 mice) (Human U87MG Glioblastoma [2]; [5]) | Tumor Growth Delay (TGD) (Human U87MG Glioblastoma [2]; [5]) [days] | Regressions (CR/PR per 10 mice) (Human U87MG Glioblastoma [2]; [6]) | Tumor Growth Delay (TGD) (Human U87MG Glioblastoma [2]; [6]) [days]
1 | Cn1cc(-c2ccc3nnn(Cc4ccc5nc(NC(=O)C6CC6)cn5n4)c3c2)cn1 [Compound 13, N-(6-((6-(1-methyl-1H-pyrazol-4-yl)-1H-benzo[d][1,2,3]triazol-1-yl)methyl)imidazo[1,2-b]pyridazin-2-yl)cyclopropanecarboxamide] | 250.2 to 251.6 |  |  |  |  |  |  |  |  |  |  |  | 
2 | O=C(Nc1cn2nc(Sc3nnc4ccccn34)ccc2n1)C1CC1 [Compound 3, N-(6-([1,2,4]triazolo[4,3-a]pyridin-3-ylthio)imidazo[1,2-b]pyridazin-2-yl)cyclopropanecarboxamide] |  | Neither of these agents was able to induce regressions | 3 | ca. 23% |  |  |  |  |  |  |  |  | 
3 | Cn1cc(-c2ccc3nnc(C(F)(F)c4ccc5nc(NC(=O)C6CC6)cn5n4)n3c2)cn1 [Compound 45, N-(6-(difluoro(6-(1-methyl-1H-pyrazol-4-yl)-[1,2,4]triazolo[4,3-a]pyridin-3-yl)methyl)imidazo[1,2-b]pyridazin-2-yl)cyclopropanecarboxamide] |  | Neither of these agents was able to induce regressions | 3 | ca. 23% | Neither agent was able to induce regressions | 3 to 4 | ca. 30% | 0/10 | 0 | 0/10 | 3.9 | 0/10 | 3.1
